# According to patent US4613590A, “Amino D-manno-2-octulopyranosidonate containing compounds, pharmaceutical compositions and method of use” (Abbott Laboratories, priority 1985, dated 1986):
# Read-outs that look alike come from different tables or passages of the source.
# Columns and labels:
# CMP-KDO synthetase = CMP-KDO synthetase (Escherichia coli, UniProt P04951); experiment: Inhibition of CMP-KDO synthetase activity (colorimetric phosphate); assay type: biochemical, gram-negative bacteria
# Chain of CMP-KDO synthetase (P04951 whole entry): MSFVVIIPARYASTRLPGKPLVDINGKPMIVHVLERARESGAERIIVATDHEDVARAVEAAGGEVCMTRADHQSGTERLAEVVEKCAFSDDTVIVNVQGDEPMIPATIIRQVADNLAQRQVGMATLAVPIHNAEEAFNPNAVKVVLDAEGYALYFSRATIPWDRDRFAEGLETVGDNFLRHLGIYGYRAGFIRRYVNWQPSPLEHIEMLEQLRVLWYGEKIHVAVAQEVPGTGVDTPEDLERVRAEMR
# Description: The inhibition of CMP-KDO synthetase activity was measured in reaction mixtures buffered at pH 9.5 containing: 2 mM KDO, 5 mM magnesium cytidine triphosphate, and inorganic pyrophosphatase. The pyrophosphate generated during the course of enzyme reaction was cleaved by the pyrophosphatase to inorganic orthophosphate, the level of which was measured colorimetrically. […] Potency was assessed by determining the level of inhibitor required to inhibit the enzyme reaction by 50% under the conditions of the assay described above (I50). A potent inhibitor is defined as one having an I50 of 1 mM or less.
# Serratia marcescens = experiment: Mouse protection assay, Serratia marcescens; assay type: in vivo; conditions: mice infected with lethal dose of Serratia marcescens
# Description: (§1) Antibacterial activity of the compounds were tested in a mouse protection assay against Escherichia Coli Juhl, Serratia marcescens and the gram positive bacterium Staphylococcus aureus.
# Escherichia Coli Juhl = experiment: Mouse protection assay, Escherichia Coli Juhl; assay type: in vivo; conditions: mice infected with lethal dose of Escherichia Coli Juhl
# Description: as §1
SMILES,IC50 (CMP-KDO synthetase),ED50 (Serratia marcescens),ED50 (Escherichia Coli Juhl),"IC50 (CMP-KDO synthetase; pH 9.5, 2 mM KDO, 5 mM magnesium cytidine triphosphate, inorganic pyrophosphatase, read-out: I50)"
"CCNC[C@@H](O)[C@H]1OC(O)(C(=O)O)C[C@@H](O)[C@H]1O (stereo partly drawn) [Example 6, 8-Ethylamino-3,8-dideoxy-D-manno-2-octulosonate]",70 µM,,,
"NC[C@@H](O)[C@H]1O[C@H](C(=O)O)C[C@@H](O)[C@H]1O [Example 2, α-C-[1,5-anhydro-7-amino-2,7-dideoxy-D-manno-heptopyranosyl]-carboxylate]",7 µM,6.3 mg/kg,3.1 mg/kg,
"NCC[C@@H](O)[C@H]1O[C@H](C(=O)O)C[C@@H](O)[C@H]1O [Example 7, α-C-[1,5 Anhydro-8-amino-2,7,8-trideoxy-D-mannooctopyranosyl] carboxylate]",,,,1.9 µM
"CNC[C@@H](O)[C@H]1OC(O)(C(=O)O)C[C@@H](O)[C@H]1O (stereo partly drawn) [Example 4, 8-Methylamino-3,8-dideoxy-D-manno-2-octulosonate]",81 µM,,,
"CN(C)C[C@@H](O)[C@H]1OC(O)(C(=O)O)C[C@@H](O)[C@H]1O (stereo partly drawn) [Example 5, 8-Dimethylamino-3,8-dideoxy-D-manno-2-octulosonate]",220 µM,,,
"NC[C@@H](O)[C@H]1OC(O)(C(=O)O)C[C@@H](O)[C@H]1O (stereo partly drawn) [Example 1, 8-Amino-3,8-dideoxy-D-manno-2-octulosonate]",310 µM,30 mg/kg,25 mg/kg,
"NCC(=O)NCC(=O)NC[C@@H](O)[C@H]1O[C@H](C(=O)O)C[C@@H](O)[C@H]1O [Example 3, α-C-[1,5-anhydro-7-(glycyl-glycylamino)-2,7-dideoxy-D-manno-heptopyranosyl]-carboxylate]",230 µM,12.5 mg/kg,6.3 mg/kg,
